For 28 compounds, EC30 results are on record in patent US10758534B2 (Vertex Pharmaceuticals Incorporated, priority 2014, dated 2020).

The target in this experiment is T1, F508del (Homo sapiens, UniProt P13569, DEL508-508).
T1 construct: expressed in transfected cells
T1 sequence (P13569 with tags, fused parts or gaps DEL508-508): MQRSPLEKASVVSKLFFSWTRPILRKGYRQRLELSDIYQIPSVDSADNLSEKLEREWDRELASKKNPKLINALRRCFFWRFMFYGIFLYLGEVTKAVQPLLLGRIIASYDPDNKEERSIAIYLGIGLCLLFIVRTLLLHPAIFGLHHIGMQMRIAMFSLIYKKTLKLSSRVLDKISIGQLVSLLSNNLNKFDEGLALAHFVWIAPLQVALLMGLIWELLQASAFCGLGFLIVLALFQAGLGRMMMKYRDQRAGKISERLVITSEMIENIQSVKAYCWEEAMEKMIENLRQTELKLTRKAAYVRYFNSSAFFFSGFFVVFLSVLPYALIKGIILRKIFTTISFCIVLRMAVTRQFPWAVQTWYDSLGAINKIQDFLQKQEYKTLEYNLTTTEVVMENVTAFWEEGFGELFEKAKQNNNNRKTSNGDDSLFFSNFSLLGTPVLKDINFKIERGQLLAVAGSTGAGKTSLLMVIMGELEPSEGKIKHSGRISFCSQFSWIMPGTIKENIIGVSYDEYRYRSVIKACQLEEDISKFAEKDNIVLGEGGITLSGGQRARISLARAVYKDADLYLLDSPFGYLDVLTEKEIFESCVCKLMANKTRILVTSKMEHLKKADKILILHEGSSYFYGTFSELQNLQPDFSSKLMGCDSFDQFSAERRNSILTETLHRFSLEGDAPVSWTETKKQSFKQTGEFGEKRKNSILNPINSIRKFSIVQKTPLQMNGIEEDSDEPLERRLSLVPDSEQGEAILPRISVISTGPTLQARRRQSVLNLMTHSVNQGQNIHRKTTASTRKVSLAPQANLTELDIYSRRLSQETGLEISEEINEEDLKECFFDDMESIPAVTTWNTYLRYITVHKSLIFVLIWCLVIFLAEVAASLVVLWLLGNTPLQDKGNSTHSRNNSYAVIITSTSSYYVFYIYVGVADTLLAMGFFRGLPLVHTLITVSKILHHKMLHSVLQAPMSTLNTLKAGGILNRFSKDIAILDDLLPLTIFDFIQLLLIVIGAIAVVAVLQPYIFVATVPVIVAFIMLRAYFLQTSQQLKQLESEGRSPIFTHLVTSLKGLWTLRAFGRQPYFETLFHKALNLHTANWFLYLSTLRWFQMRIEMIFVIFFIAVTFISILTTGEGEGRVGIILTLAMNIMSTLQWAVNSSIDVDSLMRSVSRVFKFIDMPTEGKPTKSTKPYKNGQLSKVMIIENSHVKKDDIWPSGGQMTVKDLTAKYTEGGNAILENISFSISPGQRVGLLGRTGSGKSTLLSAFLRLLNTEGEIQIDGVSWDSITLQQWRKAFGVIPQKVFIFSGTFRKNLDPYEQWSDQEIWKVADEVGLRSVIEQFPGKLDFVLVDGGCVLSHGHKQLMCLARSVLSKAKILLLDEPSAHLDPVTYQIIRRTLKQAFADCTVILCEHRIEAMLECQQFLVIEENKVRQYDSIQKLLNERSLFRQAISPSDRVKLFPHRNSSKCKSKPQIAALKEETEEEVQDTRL
In words: Protocol 1: membrane potential optical assay (FLIPR III, voltage sensing dye), identification of potentiator compounds. It is filed as cell-based. The settings on record: Table 3, compounds of Table 1. In a few lines:
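Membrane potential in forskolin-activated, temperature-rescued F508del NIH 3T3 cells is followed with a voltage-sensing dye on FLIPR III. A chloride ion gradient created at the single addition step provides the driving force, after prior compound treatment.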
`CC(C)COc1cc(F)cc(-c2ccc(C(=O)NS(=O)(=O)c3cccc(N)n3)c(N3CC(C)OCC3(C)C)n2)c1` (stereo not shown) [Compound 1548, N-[(6-amino-2-pyridyl)sulfonyl]-6-(3-fluoro-5-isobutoxy-phenyl)-2-(2,5,5-trimethylmorpholin-4-yl)pyridine-3-carboxamide]: the EC30 result was “+++ (“+++” means <3 uM)”.

In the case of `COc1ncc(-c2ccc(C(=O)NS(=O)(=O)c3cc[nH]n3)c(Oc3c(C)cc(C)cc3C)n2)cc1C` [Compound 1044, 6-(6-methoxy-5-methyl-3-pyridyl)-N-(1H-pyrazol-3-ylsulfonyl)-2-(2,4,6-trimethylphenoxy)pyridine-3-carboxamide], the EC30 entry is on record as “+++ (“+++” means <3 uM)”.

Regarding `Cc1cc(C)c(Oc2nc(C3CC(C)(C)CCC3=O)ccc2C(=O)NS(=O)(=O)c2cccc(N)n2)c(C)c1` (stereo not shown) [Compound 1427, N-[(6-amino-2-pyridyl)sulfonyl]-6-(5,5-dimethyl-2-oxo-cyclohexyl)-2-(2,4,6-trimethylphenoxy)pyridine-3-carboxamide], the EC30 result was “+++ (“+++” means <3 uM)”.

Regarding `CCOc1ccc(-c2ccc(C(=O)NS(=O)(=O)c3ccc[nH]c3=O)c(Oc3c(C)cc(C)cc3C)n2)cc1F` [Compound 901, 6-(4-ethoxy-3-fluoro-phenyl)-N-[(2-oxo-1H-pyridin-3-yl)sulfonyl]-2-(2,4,6-trimethylphenoxy)pyridine-3-carboxamide], the EC30 result was “++ (“++” means between 3 uM and 10 uM)”.

As to `CC(C)COc1cc(F)cc(-c2cc(O)c(C(=O)NS(=O)(=O)c3cccc(N)n3)c(N3[C@H](C)CC[C@@H]3C)n2)c1` [Compound 1430, N-[(6-amino-2-pyridyl)sulfonyl]-2-[(2S,5R)-2,5-dimethylpyrrolidin-1-yl]-6-(3-fluoro-5-isobutoxy-phenyl)-4-hydroxy-pyridine-3-carboxamide], the EC30 entry is given as “+++ (“+++” means <3 uM)”.

As to `CC(C)COc1cc(F)cc(-c2ccc(C(=O)NS(=O)(=O)c3cccc(=O)[nH]3)c(N3CC(C)CC3(C)C)n2)c1` (stereo not shown) [Compound 1308, 6-(3-fluoro-5-isobutoxy-phenyl)-N-[(6-oxo-1H-pyridin-2-yl)sulfonyl]-2-(2,2,4-trimethylpyrrolidin-1-yl)pyridine-3-carboxamide], the EC30 entry is “+++ (“+++” means <3 uM)”.

Turning to `CC(C)Oc1ccc(-c2ccc(C(=O)NS(=O)(=O)c3cccc(N)n3)c(N3CCCC(C4CC4)C3)n2)cn1` (stereo not shown) [Compound 1132, N-[(6-amino-2-pyridyl)sulfonyl]-2-(3-cyclopropyl-1-piperidyl)-6-(6-isopropoxy-3-pyridyl)pyridine-3-carboxamide], the EC30 result is on record as “+++ (“+++” means <3 uM)”.

`COc1ccc(C(=O)NS(=O)(=O)c2cccc(N)n2)c(Oc2c(C)cc(C)cc2C)n1` [Compound 806, N-[(6-amino-2-pyridyl)sulfonyl]-6-methoxy-2-(2,4,6-trimethylphenoxy)pyridine-3-carboxamide]: the EC30 result was “++ (“++” means between 3 uM and 10 uM)”.

For the compound `CC(C)Oc1ccc(-c2ccc(C(=O)NS(=O)(=O)c3ccc(OCc4ccccc4)c(N)n3)c(N3[C@H](C)CC[C@@H]3C)n2)cn1` [Compound 1588, N-[(6-amino-5-benzyloxy-2-pyridyl)sulfonyl]-2-[(2S,5R)-2,5-dimethylpyrrolidin-1-yl]-6-(6-isopropoxy-3-pyridyl)pyridine-3-carboxamide], the EC30 result was “+++ (“+++” means <3 uM)”.

As to `CC1CN(c2ncc(-c3ccccc3)cc2C(=O)NS(=O)(=O)c2cccc(N)n2)C(C)(C)C1` (stereo not shown) [Compound 1384, N-[(6-amino-2-pyridyl)sulfonyl]-5-phenyl-2-(2,2,4-trimethylpyrrolidin-1-yl)pyridine-3-carboxamide], the EC30 result is “+++ (“+++” means <3 uM)”.

Take `CC(C)COc1cc(F)cc(-c2nc(N3C[C@H](C)CC3(C)C)ccc2C(=O)NS(=O)(=O)c2cccc(N)n2)c1` [Compound 1385, N-[(6-amino-2-pyridyl)sulfonyl]-2-(3-fluoro-5-isobutoxy-phenyl)-6-[(4R)-2,2,4-trimethylpyrrolidin-1-yl]pyridine-3-carboxamide]: the EC30 entry is reported as “+++ (“+++” means <3 uM)”.

Turning to `Cc1cc(C)c(Oc2nc(-c3ccc(C)c(F)c3)ccc2C(=O)NS(=O)(=O)c2cccc(N)n2)c(C)c1` [Compound 1000, N-[(6-amino-2-pyridyl)sulfonyl]-6-(3-fluoro-4-methyl-phenyl)-2-(2,4,6-trimethylphenoxy)pyridine-3-carboxamide], the EC30 entry is on record as “+++ (“+++” means <3 uM)”.

As to `COc1cc(-c2ccc(C(=O)NS(=O)(=O)c3cccc(N)n3)c(Oc3c(C)cc(C)cc3C)n2)ccc1F` [Compound 919, N-[(6-amino-2-pyridyl)sulfonyl]-6-(4-fluoro-3-methoxy-phenyl)-2-(2,4,6-trimethylphenoxy)pyridine-3-carboxamide], the EC30 entry was “+++ (“+++” means <3 uM)”.

In the case of `CCOc1cccc2c1CN(Cc1c(C)cc(C)cc1C)C2(C)C(=O)NS(=O)(=O)c1cscn1` (stereo not shown) [Compound 1542, 4-ethoxy-1-methyl-N-thiazol-4-ylsulfonyl-2-[(2,4,6-trimethylphenyl)methyl]isoindoline-1-carboxamide], the EC30 result is recorded as “+++ (“+++” means <3 uM)”.

`Cc1cc(C)c(CN2Cc3ccc(O)cc3C2(C)C(=O)NS(=O)(=O)c2cccc(N)n2)c(C)c1` (stereo not shown) [Compound 885, N-[(6-amino-2-pyridyl)sulfonyl]-6-hydroxy-1-methyl-2-[(2,4,6-trimethylphenyl)methyl]isoindoline-1-carboxamide]: the EC30 result is “++ (“++” means between 3 uM and 10 uM)”.

With `CC1CN(c2ncccc2C(=O)NS(=O)(=O)c2cccc(OC3CCCC3)n2)C(C)(C)C1` (stereo not shown) [Compound 1834, N—[[6-(cyclopentoxy)-2-pyridyl]sulfonyl]-2-(2,2,4-trimethylpyrrolidin-1-yl)pyridine-3-carboxamide], the EC30 entry is on record as “+++ (“+++” means <3 uM)”.

Regarding `Cc1cc(C)c(Oc2nc(C3CCCCCC3)ccc2C(=O)NS(=O)(=O)c2cccc(N)n2)c(C)c1` [Compound 1376, N-[(6-amino-2-pyridyl)sulfonyl]-6-cycloheptyl-2-(2,4,6-trimethylphenoxy)pyridine-3-carboxamide], the EC30 result is listed as “+++ (“+++” means <3 uM)”.

For `CC(C)COc1ccc(F)c(-c2ccc(C(=O)NS(=O)(=O)c3cccc(N)n3)c(N3[C@H](C)CC[C@@H]3C)n2)c1` [Compound 807, N-[(6-amino-2-pyridyl)sulfonyl]-2-[(2S,5R)-2,5-dimethylpyrrolidin-1-yl]-6-(2-fluoro-5-isobutoxy-phenyl)pyridine-3-carboxamide], the EC30 result is given as “+++ (“+++” means <3 uM)”.

In the case of `CC(C)COc1cc(F)cc(-c2ccc(C(=O)NS(=O)(=O)C3CCOC3)c(N3C[C@@H](C)CC3(C)C)n2)c1` (stereo partly drawn) [Compound 1640, 6-(3-fluoro-5-isobutoxy-phenyl)-N-tetrahydrofuran-3-ylsulfonyl-2-[(4S)-2,2,4-trimethylpyrrolidin-1-yl]pyridine-3-carboxamide], the EC30 result is on record as “+++ (“+++” means <3 uM)”.

On to `C#CC1CCCN(c2nc(-c3ccc(OC(C)C)nc3)ccc2C(=O)NS(=O)(=O)c2cccc(N)n2)C1` (stereo not shown) [Compound 954, N-[(6-amino-2-pyridyl)sulfonyl]-2-(3-ethynyl-1-piperidyl)-6-(6-isopropoxy-3-pyridyl)pyridine-3-carboxamide], for which the EC30 result is recorded as “+++ (“+++” means <3 uM)”.

With `CC1CN(c2ncccc2C(=O)NS(=O)(=O)c2cccc(N3CCC(c4ccccc4)CC3)n2)C(C)(C)C1` (stereo not shown) [Compound 1987, N—[[6-(4-phenyl-1-piperidyl)-2-pyridyl]sulfonyl]-2-(2,2,4-trimethylpyrrolidin-1-yl)pyridine-3-carboxamide], the EC30 result is given as “+++ (“+++” means <3 uM)”.

`CC(C)Oc1ccc(-c2ccc(C(=O)NS(=O)(=O)c3cccc(N)n3)c(N3C[C@H](C)C[C@H](C)C3)n2)cn1` [Compound 1145, N-[(6-amino-2-pyridyl)sulfonyl]-2-[(3R,5S)-3,5-dimethyl-1-piperidyl]-6-(6-isopropoxy-3-pyridyl)pyridine-3-carboxamide]: the EC30 entry was “+++ (“+++” means <3 uM)”.

For `CC(C)COc1cc(F)cc(-c2ccc(C(=O)NS(=O)(=O)c3cccc(N)c3)c(N3CCC(C)(C)CC3)n2)c1` [Compound 1014, N-(3-aminophenyl)sulfonyl-2-(4,4-dimethyl-1-piperidyl)-6-(3-fluoro-5-isobutoxy-phenyl)pyridine-3-carboxamide], the EC30 entry was “+++ (“+++” means <3 uM)”.

On to `CCC1CCCN1c1nc(-c2ccc(OC(C)C)nc2)ccc1C(=O)NS(=O)(=O)c1cccc(N)n1` (stereo not shown) [Compound 1087, N-[(6-amino-2-pyridyl)sulfonyl]-2-(2-ethylpyrrolidin-1-yl)-6-(6-isopropoxy-3-pyridyl)pyridine-3-carboxamide], for which the EC30 entry is listed as “+++ (“+++” means <3 uM)”.

`C#Cc1cccc(Oc2cccc(S(=O)(=O)NC(=O)c3cccnc3N3CC(C)CC3(C)C)n2)c1` (stereo not shown) [Compound 1782, N—[[6-(3-ethynylphenoxy)-2-pyridyl]sulfonyl]-2-(2,2,4-trimethylpyrrolidin-1-yl)pyridine-3-carboxamide]: the EC30 result was “+++ (“+++” means <3 uM)”.

As to `Cc1cc(C)c(Oc2nc(C)ccc2C(=O)NS(=O)(=O)c2cccc(N3CCN(C)CC3)n2)c(C)c1` [Compound 1018, 6-methyl-N-[[6-(4-methylpiperazin-1-yl)-2-pyridyl]sulfonyl]-2-(2,4,6-trimethylphenoxy)pyridine-3-carboxamide], the EC30 entry is “++ (“++” means between 3 uM and 10 uM)”.

`CC1CN(c2ncccc2C(=O)NS(=O)(=O)c2cccc(Nc3cccc(Cl)c3Cl)n2)C(C)(C)C1` (stereo not shown) [Compound 1906, N—[[6-(2,3-dichloroanilino)-2-pyridyl]sulfonyl]-2-(2,2,4-trimethylpyrrolidin-1-yl)pyridine-3-carboxamide]: the EC30 entry is “+++ (“+++” means <3 uM)”.

Regarding `Cc1cc(C)c(Oc2nc(C3=COCC3)ccc2C(=O)NS(=O)(=O)c2cccc(N)n2)c(C)c1` [Compound 1412, N-[(6-amino-2-pyridyl)sulfonyl]-6-(2,3-dihydrofuran-4-yl)-2-(2,4,6-trimethylphenoxy)pyridine-3-carboxamide], the EC30 result was “+++ (“+++” means <3 uM)”.
